In PubChem BioAssay AID248 (DTP/NCI, 2004):
“And” between values parts separate entries of the source, which are not always exact repeats. Identical values can stand only once. Inconclusive results and toxic doses are left out. Cut-off read from the data, not from the text of the source: active = T/C of 150% or more; inactive = T/C below 125%.

Test system: L1210 leukemia ip in BDF1 mice, survival T/C
Assay: NCI In Vivo Anticancer Drug Screen. Data for tumor model L1210 Leukemia (intraperitoneal) in B6D2F1 (BDF1) mice
Settings: endpoint: mean survival time, higher = longer survival
Procedure, shortened: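 Mice bearing the transplanted tumor received compound or vehicle. Survival of the treated group was divided by that of the vehicle-treated control group to give the ratio.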

[1] = dose: 25.0 mg/kg/injection, schedule: Q01DX001 (ip), vehicle: saline
[2] = dose: 25.0 mg/kg/injection, schedule: Q04DX003 (ip), vehicle: saline
[3] = dose: 25.0 mg/kg/injection, schedule: Q01DX009 (ip), vehicle: Klucel (hydroxypropylcellulose) (HPC)
[4] = dose: 50.0 mg/kg/injection, schedule: Q01DX009 (ip), vehicle: Klucel (hydroxypropylcellulose) (HPC)
[5] = dose: 100.0 mg/kg/injection, schedule: Q01DX009 (ip), vehicle: Klucel (hydroxypropylcellulose) (HPC)
[6] = dose: 100.0 mg/kg/injection, schedule: Q04DX003 (ip), vehicle: Klucel (hydroxypropylcellulose) (HPC)
[7] = dose: 200.0 mg/kg/injection, schedule: Q01DX009 (ip), vehicle: Klucel (hydroxypropylcellulose) (HPC)
[8] = dose: 200.0 mg/kg/injection, schedule: Q04DX003 (ip), vehicle: Klucel (hydroxypropylcellulose) (HPC)
[9] = dose: 400.0 mg/kg/injection, schedule: Q01DX009 (ip), vehicle: Klucel (hydroxypropylcellulose) (HPC)
[10] = dose: 400.0 mg/kg/injection, schedule: Q04DX003 (ip), vehicle: Klucel (hydroxypropylcellulose) (HPC)
[11] = dose: 100.0 mg/kg/injection, schedule: Q01DX001 (ip), vehicle: saline with Tween-80
[12] = dose: 200.0 mg/kg/injection, schedule: Q01DX001 (ip), vehicle: saline with Tween-80
[13] = dose: 400.0 mg/kg/injection, schedule: Q01DX001 (ip), vehicle: saline with Tween-80
[14] = dose: 100.0 mg/kg/injection, schedule: Q04DX002 (ip), vehicle: Klucel (hydroxypropylcellulose) (HPC)
[15] = dose: 200.0 mg/kg/injection, schedule: Q04DX002 (ip), vehicle: Klucel (hydroxypropylcellulose) (HPC)
[16] = dose: 400.0 mg/kg/injection, schedule: Q04DX002 (ip), vehicle: Klucel (hydroxypropylcellulose) (HPC)
[17] = dose: 100.0 mg/kg/injection, schedule: Q04DX003 (ip), vehicle: saline
[18] = dose: 100.0 mg/kg/injection, schedule: Q04DX002 (ip), vehicle: saline with Tween-80
[19] = dose: 200.0 mg/kg/injection, schedule: Q04DX003 (ip), vehicle: saline
[20] = dose: 400.0 mg/kg/injection, schedule: Q04DX003 (ip), vehicle: saline

Measured: T/C

CCCCCCCCCCCC(=O)[O][Sn]([CH2]C)([CH2]C)[O]C(=O)CCCCCCCCCCC
inactive: dose: 6.25 mg/kg/injection, schedule: Q04DX003 (ip), vehicle: saline 112 % of control | dose: 8.75 mg/kg/injection, schedule: Q01DX009 (ip), vehicle: saline with Tween-80 98 % of control | dose: 12.5 mg/kg/injection, schedule: Q01DX001 (ip), vehicle: saline 103 % of control | dose: 12.5 mg/kg/injection, schedule: Q04DX003 (ip), vehicle: saline 105 % of control | dose: 17.5 mg/kg/injection, schedule: Q01DX009 (ip), vehicle: saline with Tween-80 121 % of control | [1] 109 % of control | [2] 112 % of control | dose: 35.0 mg/kg/injection, schedule: Q04DX003 (ip), vehicle: acetone 106 % of control

COc1ccccc1C(=O)N/N=C/c1ccccc1Cl
inactive: [3] 96 % of control | [4] 96 % of control | [5] 104 % of control and 105 % of control | [6] 108 % of control | [7] 108 % of control | [8] 111 % of control | [9] 103 % of control | [10] 108 % of control

O=c1ccn(CCCc2ccccc2)c(=O)[nH]1
inactive: [5] 94 % of control | [7] 109 % of control | [9] 94 % of control

CC(=O)OCCC/C(=C\c1ccc(F)cc1)[N+](=O)[O-]
inactive: dose: 100.0 mg/kg/injection, schedule: Q01DX001 (ip), vehicle: other 111 % of control

CC[N+](C)(CC)CCNC(c1ccccc1)C(Cl)(Cl)Cl (stereo not drawn)
inactive: dose: 5.0 mg/kg/injection, schedule: Q01DX001 (ip), vehicle: saline 92 % of control | dose: 10.0 mg/kg/injection, schedule: Q01DX001 (ip), vehicle: saline 95 % of control | dose: 20.0 mg/kg/injection, schedule: Q01DX001 (ip), vehicle: saline 103 % of control | dose: 40.0 mg/kg/injection, schedule: Q01DX001 (ip), vehicle: saline 95 % of control | dose: 80.0 mg/kg/injection, schedule: Q01DX001 (ip), vehicle: saline 106 % of control | dose: 100.0 mg/kg/injection, schedule: Q01DX001 (ip), vehicle: saline 102 % of control

CN(C)C(=S)Oc1ccccc1C1(C)OCCO1
inactive: [11] 97 % of control | [12] 98 % of control | [13] 96 % of control

CC(=O)C(CCC#N)(CCC#N)C(C)=O
inactive: dose: 50.0 mg/kg/injection, schedule: Q04DX002 (ip), vehicle: Klucel (hydroxypropylcellulose) (HPC) 101 % of control | [14] 95 % of control and 105 % of control | [15] 100 % of control | [16] 97 % of control and 86 % of control

CN(C)CN(C)C
inactive: [1] 98 % of control | dose: 25.0 mg/kg/injection, schedule: Q01DX009 (ip), vehicle: saline 89 % of control | [2] 100 % of control | dose: 50.0 mg/kg/injection, schedule: Q01DX001 (ip), vehicle: saline 102 % of control | dose: 50.0 mg/kg/injection, schedule: Q01DX009 (ip), vehicle: saline 100 % of control | dose: 50.0 mg/kg/injection, schedule: Q04DX003 (ip), vehicle: saline 100 % of control | [17] 102 % of control

C=CS(=O)(=O)CCc1ccccc1
inactive: [18] 115 % of control | dose: 200.0 mg/kg/injection, schedule: Q04DX002 (ip), vehicle: saline with Tween-80 102 % of control | dose: 400.0 mg/kg/injection, schedule: Q04DX002 (ip), vehicle: saline with Tween-80 91 % of control

CNC(=O)OCC(Cl)(Cl)Cl
inactive: [5] 97 % of control | [6] 96 % of control | [7] 98 % of control | [8] 100 % of control | [9] 95 % of control | [10] 100 % of control

Cn1c(=O)[nH]cc(C(=O)O)c1=O
inactive: [6] 91 % of control | [8] 92 % of control | [10] 91 % of control

COc1cc(NC(=O)Nc2ccccc2Cl)c(OC)cc1Cl
inactive: [18] 93 % of control

Nc1ccc(CCO)cc1
inactive: [17] 105 % of control | [19] 96 % of control | [20] 96 % of control

Nc1ncc(-c2ccc(Br)cc2)s1
inactive: dose: 12.5 mg/kg/injection, schedule: Q01DX005 (ip), vehicle: Klucel (hydroxypropylcellulose) (HPC) 100 % of control | dose: 12.5 mg/kg/injection, schedule: Q01DX009 (ip), vehicle: Klucel (hydroxypropylcellulose) (HPC) 105 % of control | dose: 25.0 mg/kg/injection, schedule: Q01DX005 (ip), vehicle: Klucel (hydroxypropylcellulose) (HPC) 107 % of control | [3] 97 % of control | dose: 50.0 mg/kg/injection, schedule: Q01DX005 (ip), vehicle: Klucel (hydroxypropylcellulose) (HPC) 91 % of control | [4] 97 % of control | dose: 75.0 mg/kg/injection, schedule: Q01DX009 (ip), vehicle: Klucel (hydroxypropylcellulose) (HPC) 97 % of control | [14] 102 % of control | dose: 115.0 mg/kg/injection, schedule: Q01DX009 (ip), vehicle: Klucel (hydroxypropylcellulose) (HPC) 92 % of control | dose: 170.0 mg/kg/injection, schedule: Q01DX009 (ip), vehicle: Klucel (hydroxypropylcellulose) (HPC) 116 % of control | [15] 102 % of control | [16] 88 % of control

c1c[nH]c(N=Nc2ccc(-c3ccc(N=Nc4ncc[nH]4)cc3)cc2)n1
inactive: dose: 50.0 mg/kg/injection, schedule: Q01DX009 (ip), vehicle: saline with Tween-80 97 % of control | dose: 100.0 mg/kg/injection, schedule: Q01DX009 (ip), vehicle: saline with Tween-80 90 % of control | dose: 200.0 mg/kg/injection, schedule: Q01DX009 (ip), vehicle: saline with Tween-80 90 % of control

CNC(=O)Oc1cccc2c1OC(C)(C)C2
inactive: dose: 1.56 mg/kg/injection, schedule: Q01DX001 (ip), vehicle: Klucel (hydroxypropylcellulose) (HPC) 96 % of control | dose: 3.13 mg/kg/injection, schedule: Q01DX001 (ip), vehicle: Klucel (hydroxypropylcellulose) (HPC) 103 % of control

CC(C)/C([O-])=N\[N+](C)(C)Cc1ccccc1
inactive: [17] 105 % of control | [19] 100 % of control | [20] 98 % of control

CCCCN=C(NCCCC)OC1CCCCC1
inactive: dose: 11.1 mg/kg/injection, schedule: Q01DX Z (ip), vehicle: saline 98 % of control | dose: 16.6 mg/kg/injection, schedule: Q01DX Z (ip), vehicle: saline 100 % of control | dose: 25.0 mg/kg/injection, schedule: Q01DX Z (ip), vehicle: saline 102 % of control

CCCCCC=C(c1ccccc1)c1ccccc1
inactive: [11] 92 % of control | [12] 104 % of control | [13] 95 % of control

Cc1ccc(S(=O)(=O)OCCCCOS(=O)(=O)c2ccc(C)cc2)cc1
inactive: [5] 99 % of control | [6] 91 % of control | [7] 89 % of control | [8] 100 % of control | [9] 100 % of control | [10] 105 % of control

CC(C)OC(=O)Nc1cccc([N+](=O)[O-])c1
inactive: [14] 105 % of control | [15] 91 % of control | [16] 97 % of control

O=C(Sc1ccccc1)C1OC1(c1ccccc1)c1ccccc1 (stereo not drawn)
inactive: [6] 97 % of control | [8] 88 % of control
